This note sets out measurements from ChEMBL document CHEMBL1137330, “Synthesis and pharmacokinetics of valopicitabine (NM283), an efficient prodrug of the potent anti-HCV agent 2'-C-methylcytidine” (J Med Chem, 2006).

One may read the AUC(0-t) as exposure summed from dosing to a finite time, without extrapolation to infinity. In general, logP refers to a log measure of how a compound divides between an organic and an aqueous phase. Low values mean a more hydrophilic compound, high ones a more lipophilic compound. What is called Cmax is the peak of the concentration-time curve. In general, Tmax refers to the time from dosing to the highest level. Broadly, the solubility is how much of the substance goes into solution per volume. A higher solubility goes with a readily soluble substance.

Data set [1] concerns Rattus norvegicus. The data set is described as follows: (§1) AUC (0-t) in jugular vein cannulated Sprague-Dawley rat at 100 mg/kg, po. On the set-up: dose 100 mg/kg, route oral. Particulars: in vivo; call rule not given here. In kind it is ADME, organism-based, Plasma.
The nature of data set [2]: Half life at pH 4.5. In kind it is ADME. Particulars: buffer.
Data set [3] can be described thus: Protein binding in rat plasma at 20 uM. In kind it is ADME, cell-free. Particulars: read-out: PPB (converted).
The nature of data set [4]: as §1. The format is ADME, organism-based, Plasma. On the set-up: dose 100 mg/kg, route oral. Particulars: Sprague-Dawley, plasma.
A short description of data set [5]: Distribution coefficient, log P of the compound. Particulars: octanol/water. The format is physicochemical.
The nature of data set [6]: Cmax in jugular vein cannulated Sprague-Dawley rat at 100 mg/kg, po. The format is ADME, organism-based. On the set-up: dose 100 mg/kg, route oral. Particulars: in vivo.
Data set [7] in a line: Tmax in jugular vein cannulated Sprague-Dawley rat at 100 mg/kg, po. In kind it is ADME, organism-based. On the set-up: dose 100 mg/kg, route oral. Particulars: in vivo.
Data set [8] in a line: Half life in human whole blood. The format is ADME, organism-based.
Another data set concerns Plasma. The data set is described as follows: Drug level in jugular vein cannulated Sprague-Dawley rat plasma after 12 hrs. In kind it is ADME, cell-free.
The nature of data set [9]: Half life at pH 7.2. The format is ADME. Particulars: buffer.
The species named for data set [10] is Homo sapiens. The data set is described as follows: Half life in human plasma.
The species named for data set [11] is Homo sapiens. The data set is described as follows: Conversion of prodrug to 2'-C-methylcytidine in human liver cytosol. In kind it is ADME, organism-based.
A short description of data set [12]: Terminal half life in jugular vein cannulated Sprague-Dawley rat at 100 mg/kg, po. The format is ADME, organism-based. Particulars: in vivo, read-out: beta t1/2 (converted). On the set-up: dose 100 mg/kg, route oral.
Data set [13] is described as follows: Aqueous solubility of the compound. The format is physicochemical.
Data set [14] is filed under the species Homo sapiens. The data set is described as follows: Conversion of prodrug to 2'-C-methylcytidine in human liver S9 fraction. In kind it is ADME, organism-based.
The nature of data set [15]: Chemical stability at pH 7.2. In kind it is physicochemical. Particulars: buffer.
Data set [16] can be described thus: Chemical stability at pH 1.2. In kind it is physicochemical. Particulars: buffer.
Data set [17] deals with Rattus norvegicus. The data set is described as follows: Tmax in jugular vein cannulated Sprague-Dawley rat at 100 mg/kg, po administered as prodrug. In kind it is ADME, organism-based. On the set-up: dose 100 mg/kg, route oral. Particulars: in vivo.
Data set [18] in a line: Chemical stability at pH 4.5. The format is physicochemical. Particulars: buffer.
For data set [19], the system named is Rattus norvegicus. The data set is described as follows: Cmax in jugular vein cannulated Sprague-Dawley rat at 100 mg/kg, po administered as prodrug. The format is ADME, organism-based. On the set-up: dose 100 mg/kg, route oral. Particulars: in vivo.
The subject of data set [20] is Rattus norvegicus. The data set is described as follows: Apparent oral bioavailability in jugular vein cannulated Sprague-Dawley rat at 100 mg/kg, po administered as prodrug. Particulars: in vivo. In kind it is ADME, organism-based.
The subject of data set [21] is Rattus norvegicus. The data set is described as follows: Terminal half life in jugular vein cannulated Sprague-Dawley rat at 100 mg/kg, po administered as prodrug. In kind it is ADME, organism-based. On the set-up: dose 100 mg/kg, route oral. Particulars: in vivo.
In data set [22] the test system is Rattus norvegicus. The data set is described as follows: AUC(0-t) in jugular vein cannulated Sprague-Dawley rat at 100 mg/kg, po administered as prodrug. On the set-up: dose 100 mg/kg, route oral. In kind it is ADME, organism-based, Plasma. Particulars: in vivo.
Data set [23] is described as follows: Cmax in Sprague-Dawley rat after 15 days at 60 mg/kg/day, iv. On the set-up: dose 60 mg/kg/day, route intravenous. Particulars: in vivo. The format is ADME, organism-based.
The nature of data set [24]: AUC in Sprague-Dawley rat after 15 days at 60 mg/kg/day, iv. Particulars: plasma. On the set-up: route intravenous. The format is ADME, organism-based.
Data set [25] can be described thus: Fecal excretion in intact Sprague-Dawley rat at 100 mg/kg, po after 168 hrs. In kind it is ADME, organism-based. On the set-up: dose 100 mg/kg, route oral. Particulars: faeces, read-out: Activity.
The nature of data set [26]: Urinary excretion in bile duct cannulated Sprague-Dawley rat at 100 mg/kg, po after 72 hrs. The format is ADME, organism-based. On the set-up: dose 100 mg/kg, route oral. Particulars: urine, read-out: Activity.
Data set [27] in a line: Biliary excretion in bile duct cannulated Sprague-Dawley rat at 100 mg/kg, po after 72 hrs. The format is ADME, organism-based. On the set-up: dose 100 mg/kg, route oral. Particulars: read-out: Activity.
Data set [28] relates to Rattus norvegicus. The data set is described as follows: Urinary excretion in intact Sprague-Dawley rat at 100 mg/kg, po after 168 hrs. In kind it is ADME, organism-based, Urine. On the set-up: dose 100 mg/kg, route oral. Particulars: in vivo.
Data set [29] in a line: Fecal excretion in bile duct cannulated Sprague-Dawley rat at 100 mg/kg, po after 72 hrs. The format is ADME, organism-based. On the set-up: dose 100 mg/kg, route oral. Particulars: faeces, read-out: Activity.

Each structure is given as a SMILES string. ≈ marks a conversion by molar mass, not a printed value. Some results are limits rather than exact numbers.

In the case of `C[C@@]1(O)[C@@H](n2ccc(=O)[nH]c2=O)O[C@@H](CO)[C@@H]1O`, the AUC in the data set with Rattus norvegicus [1] was under 0.1 µg/mL.
With `CC(C)[C@H](N)C(=O)O[C@@H]1[C@@H](CO)O[C@@H](n2ccc(N)nc2=O)[C@]1(C)O.Cl.Cl` [VALOPICITABINE DIHYDROCHLORIDE], the half-life in data set [2] is 146 h; in data set [8], 0.667 h; in data set [9] it was 3.9 h; in the data set filed under Homo sapiens [10], 2.17 h; in data set [12] it was 0.64 h. For the same compound, the fraction unbound at 20 µM in data set [3] was 0.93. Moreover, in data set [4], the AUC(0-t) came out at 8950 ng·h/mL. This compound also displayed a logP in data set [5] of -1.34. The compound also returned a Cmax in data set [6] of 3620 ng/mL. Further, the time of peak concentration (Tmax) in [7] turned out to be 1 h. The results for the Activity entry with Plasma, in the data set filed under Homo sapiens [11] and in the data set filed under Homo sapiens [14] were “Not Active”, 30% and 30%, respectively. In addition, in data set [13], the solubility came to 423 mg/mL.
For the compound `C[C@@]1(O)[C@H](O)[C@@H](CO)O[C@H]1n1ccc(N)nc1=O`, the fraction unbound at 20 µM in [3] is 0.95. The Stability entry in data set [15], in [16] and in data set [18] was “Stable” in each case. The Tmax with Rattus norvegicus [17] worked out at 2 h. Moreover, the logP in data set [5] is -0.965. Further, the Cmax with Rattus norvegicus [19] came out at 6120 ng/mL; in data set [23] it was 75600 ng/mL. Also, the F in the data set on Rattus norvegicus [20] is 33.6%. Besides, the “beta t1/2” value in the data set with Rattus norvegicus [21] turned out to be 7.1 h. The AUC with Rattus norvegicus [22] was found to be 30000 ng·h/mL. In data set [24], this compound yielded an AUC at 360 h of 74400 ng·h/mL. The solubility in data set [13] is 32 mg/mL (≈ 124 mM).
For the compound `CC(C)C(N)C(=O)O[C@H]1[C@H](CO)O[C@H](n2ccc(N)nc2=O)[14C@@]1(C)O.Cl.Cl` (stereo partly drawn), the dose excreted at 168 h in data set [25] is 63.5%. The dose excreted at 72 h is 29.8% in [26], 0.3% in data set [27] and 65.9% in data set [29]. The compound further gave an Activity in the data set on Rattus norvegicus [28] of 31.9%.
